Results published in PubChem BioAssay (NCI).
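Interpolation was linear, between the two tested concentrations surrounding the appropriate level; five concentrations were tested over 48 hours in 96-well plates. The concentration for 50% growth inhibition is given as GI50. TGI denotes the concentration required for complete inhibition of growth.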

Legend:
Test in all cases: NCI anticancer screen, dose series, 48 h
SNB-19 CNS = test system: SNB-19 CNS
SR leukemia = test system: SR leukemia
SK-MEL-5 melanoma = test system: SK-MEL-5 melanoma
786-0 renal = test system: 786-0 renal
BT-549 breast = test system: BT-549 breast
NCI-H522 lung = test system: NCI-H522 lung
MOLT-4 leukemia = test system: MOLT-4 leukemia
DU-145 prostate = test system: DU-145 prostate
A498 renal = test system: A498 renal
EKVX NSCLC = test system: EKVX NSCLC
COLO 205 colon = test system: COLO 205 colon
TK-10 renal = test system: TK-10 renal
HCT-116 colon = test system: HCT-116 colon
SK-MEL-2 melanoma = test system: SK-MEL-2 melanoma
OVCAR-8 ovarian = test system: OVCAR-8 ovarian
OVCAR-5 ovarian = test system: OVCAR-5 ovarian
HOP-62 NSCLC = test system: HOP-62 NSCLC
SN12C renal = test system: SN12C renal
KM12 colon = test system: KM12 colon
HCC-2998 colon = test system: HCC-2998 colon
SW-620 colon = test system: SW-620 colon
HT29 colon = test system: HT29 colon
U251 CNS = test system: U251 CNS
HCT-15 colon = test system: HCT-15 colon
NCI-H226 lung = test system: NCI-H226 lung
PC-3 prostate = test system: PC-3 prostate
SF-295 CNS = test system: SF-295 CNS
ACHN renal = test system: ACHN renal
UACC-62 melanoma = test system: UACC-62 melanoma
T-47D breast = test system: T-47D breast
NCI-H460 lung = test system: NCI-H460 lung
SF-539 CNS = test system: SF-539 CNS
M14 melanoma = test system: M14 melanoma
K-562 leukemia = test system: K-562 leukemia
A549 NSCLC = test system: A549 NSCLC
CAKI-1 renal = test system: CAKI-1 renal
MCF7 breast = test system: MCF7 breast
MDA-MB-231 breast = test system: MDA-MB-231 breast
HOP-92 NSCLC = test system: HOP-92 NSCLC
SNB-75 CNS = test system: SNB-75 CNS
NCI-H23 lung = test system: NCI-H23 lung
OVCAR-4 ovarian = test system: OVCAR-4 ovarian
RPMI-8226 leukemia = test system: RPMI-8226 leukemia
CCRF-CEM leukemia = test system: CCRF-CEM leukemia
UO-31 renal = test system: UO-31 renal
MDA-MB-435 = test system: MDA-MB-435
SK-MEL-28 melanoma = test system: SK-MEL-28 melanoma
UACC-257 melanoma = test system: UACC-257 melanoma
IGROV1 ovarian = test system: IGROV1 ovarian
LOX IMVI melanoma = test system: LOX IMVI melanoma
HL-60(TB) leukemia = test system: HL-60(TB) leukemia
NCI/ADR-RES ovarian = test system: NCI/ADR-RES ovarian
SF-268 CNS = test system: SF-268 CNS
HS 578T breast = test system: HS 578T breast
OVCAR-3 ovarian = test system: OVCAR-3 ovarian

For `COc1ccc2c(c1)CCC1C2CCC2(C)C3=CC(O)CCC3CC12` (stereo not given), the GI50 (SNB-19 CNS) was 21.5 µM, the TGI (SNB-19 CNS) was 42.5 µM and the GI50 (SR leukemia) was 14.3 µM. The TGI (SR leukemia) was 37.5 µM, the GI50 (SK-MEL-5 melanoma) was 11.7 µM and the TGI (SK-MEL-5 melanoma) was 23.9 µM. The GI50 (786-0 renal) was 17.4 µM, the TGI (786-0 renal) was 33.3 µM and the GI50 (BT-549 breast) was 18.8 µM. It also gave a TGI (BT-549 breast) of 41.5 µM, a GI50 (NCI-H522 lung) of 14.3 µM and a TGI (NCI-H522 lung) of 31.5 µM. For the same compound, the GI50 (MOLT-4 leukemia) was 18.3 µM, the TGI (MOLT-4 leukemia) was 43.7 µM and the GI50 (DU-145 prostate) was 15.7 µM. The TGI (DU-145 prostate) was 30.2 µM, the GI50 (A498 renal) was 16.7 µM and the TGI (A498 renal) was 35.4 µM. It also gave a GI50 (EKVX NSCLC) of 16.9 µM, a TGI (EKVX NSCLC) of 36.2 µM and a GI50 (COLO 205 colon) of 32.7 µM. It also gave a TGI (COLO 205 colon) of 88.7 µM, a GI50 (TK-10 renal) of 21.2 µM and a TGI (TK-10 renal) of 43.2 µM. For the same compound, the GI50 (HCT-116 colon) was 15.7 µM, the TGI (HCT-116 colon) was 29.6 µM and the GI50 (SK-MEL-2 melanoma) was 18.9 µM. It also gave a TGI (SK-MEL-2 melanoma) of 56.6 µM, a GI50 (OVCAR-8 ovarian) of 18 µM and a TGI (OVCAR-8 ovarian) of 36.7 µM. It also gave a GI50 (OVCAR-5 ovarian) of 15.2 µM, a TGI (OVCAR-5 ovarian) of 29.1 µM and a GI50 (HOP-62 NSCLC) of 19.6 µM. It also gave a TGI (HOP-62 NSCLC) of 34.4 µM, a GI50 (SN12C renal) of 16.4 µM and a TGI (SN12C renal) of 30.9 µM. For the same compound, the GI50 (KM12 colon) was 19.8 µM, the TGI (KM12 colon) was 40.1 µM and the GI50 (HCC-2998 colon) was 14.3 µM. The TGI (HCC-2998 colon) was 27.4 µM, the GI50 (SW-620 colon) was 14.4 µM and the TGI (SW-620 colon) was 30.1 µM. It also gave a GI50 (HT29 colon) of 11 µM, a TGI (HT29 colon) of 37.4 µM and a GI50 (U251 CNS) of 14 µM. It also gave a TGI (U251 CNS) of 27.4 µM, a GI50 (HCT-15 colon) of 7.06 µM and a TGI (HCT-15 colon) of 21.2 µM. For the same compound, the GI50 (NCI-H226 lung) was 18 µM, the TGI (NCI-H226 lung) was 40.7 µM and the GI50 (PC-3 prostate) was 15.2 µM. For the same compound, the TGI (PC-3 prostate) was 31.1 µM, the GI50 (SF-295 CNS) was 20.4 µM and the TGI (SF-295 CNS) was 46.1 µM. It also gave a GI50 (ACHN renal) of 20.1 µM, a TGI (ACHN renal) of 34.7 µM and a GI50 (UACC-62 melanoma) of 12.5 µM. The TGI (UACC-62 melanoma) was 25 µM, the GI50 (T-47D breast) was 23 µM and the TGI (T-47D breast) was 64.5 µM. The GI50 (NCI-H460 lung) was 19.4 µM, the TGI (NCI-H460 lung) was 40.7 µM and the GI50 (SF-539 CNS) was 18.3 µM. It also gave a TGI (SF-539 CNS) of 34.7 µM, a GI50 (M14 melanoma) of 15.7 µM and a TGI (M14 melanoma) of 30.2 µM. For the same compound, the GI50 (K-562 leukemia) was 13.1 µM, the TGI (K-562 leukemia) was 35.5 µM and the GI50 (A549 NSCLC) was 14.7 µM. For the same compound, the TGI (A549 NSCLC) was 31.6 µM, the GI50 (CAKI-1 renal) was 21.9 µM and the TGI (CAKI-1 renal) was 45.5 µM. It also gave a GI50 (MCF7 breast) of 24.8 µM, a TGI (MCF7 breast) of 50.5 µM and a GI50 (MDA-MB-231 breast) of 17.6 µM. It also gave a TGI (MDA-MB-231 breast) of 34.8 µM, a GI50 (HOP-92 NSCLC) of 22.6 µM and a TGI (HOP-92 NSCLC) of 45.2 µM. It also gave a GI50 (SNB-75 CNS) of 43.5 µM, a TGI (SNB-75 CNS) greater than 100 µM and a GI50 (NCI-H23 lung) of 15.8 µM. The TGI (NCI-H23 lung) was 30.1 µM, the GI50 (OVCAR-4 ovarian) was 28 µM and the TGI (OVCAR-4 ovarian) was 75.1 µM. For the same compound, the GI50 (RPMI-8226 leukemia) was 16.7 µM, the TGI (RPMI-8226 leukemia) was 43.9 µM and the GI50 (CCRF-CEM leukemia) was 15.6 µM. The TGI (CCRF-CEM leukemia) was 36.3 µM, the GI50 (UO-31 renal) was 19.8 µM and the TGI (UO-31 renal) was 40.9 µM. It also gave a GI50 (MDA-MB-435) of 15.3 µM, a TGI (MDA-MB-435) of 35.4 µM and a GI50 (SK-MEL-28 melanoma) of 21.8 µM. It also gave a TGI (SK-MEL-28 melanoma) of 51.5 µM, a GI50 (UACC-257 melanoma) of 12.7 µM and a TGI (UACC-257 melanoma) of 26.2 µM. The GI50 (IGROV1 ovarian) was 16.7 µM, the TGI (IGROV1 ovarian) was 37.2 µM and the GI50 (LOX IMVI melanoma) was 15.4 µM. It also gave a TGI (LOX IMVI melanoma) of 31.8 µM, a GI50 (HL-60(TB) leukemia) of 15.6 µM and a TGI (HL-60(TB) leukemia) of 35.5 µM. For the same compound, the GI50 (NCI/ADR-RES ovarian) was 16 µM, the TGI (NCI/ADR-RES ovarian) was 34.5 µM and the GI50 (SF-268 CNS) was 20.3 µM. For the same compound, the TGI (SF-268 CNS) was 40.6 µM, the GI50 (HS 578T breast) was 23.4 µM and the TGI (HS 578T breast) was 49.1 µM. For the same compound, the GI50 (OVCAR-3 ovarian) was 25.1 µM and the TGI (OVCAR-3 ovarian) was 53.6 µM.
